According to patent US5220017A, “Cholecystokinin antagonists” (Merck & Co., Inc., priority 1992, dated 1993):
Non-standard residues stand in square brackets, D forms with d. Residues, ends and D or L forms follow the SMILES beside them. *: point of attachment. sY = N[C@@H](Cc1ccc(OS(=O)(=O)O)cc1)C(=O)O; Cbz = O=C(OCc1ccccc1)*; Boc = CC(C)(C)OC(=O)*

Key:
[1] = system: CCK-B receptors; conditions: literature, in words; cited from earlier work
[2] = system: CCK receptor; conditions: literature, in words; cited from earlier work
[3] = target: T1, CCK receptor (rat pancreas) (Rattus norvegicus, UniProt P30551); assay: CCK Receptor Binding (Pancreas), 125I-CCK-8 displacement; set-up: species or system rat (male Sprague-Dawley)
T1 construct: The whole pancreas was dissected free of fat tissue and was homogenized; from tissue; host or cells: whole pancreas membranes, male Sprague-Dawley rat
T1 sequence (P30551 1-444): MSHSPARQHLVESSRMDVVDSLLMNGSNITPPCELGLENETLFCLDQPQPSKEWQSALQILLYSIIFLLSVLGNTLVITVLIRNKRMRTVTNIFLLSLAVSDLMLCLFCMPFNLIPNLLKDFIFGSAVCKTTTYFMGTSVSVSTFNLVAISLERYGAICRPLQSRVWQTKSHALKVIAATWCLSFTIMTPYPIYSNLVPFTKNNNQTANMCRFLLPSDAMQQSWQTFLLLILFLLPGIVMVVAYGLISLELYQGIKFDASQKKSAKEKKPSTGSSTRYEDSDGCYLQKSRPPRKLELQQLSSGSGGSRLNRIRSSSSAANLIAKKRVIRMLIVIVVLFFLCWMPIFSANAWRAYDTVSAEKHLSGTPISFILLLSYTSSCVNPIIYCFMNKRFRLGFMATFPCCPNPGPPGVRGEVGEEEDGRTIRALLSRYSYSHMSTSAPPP
Procedure: 1. CCK Receptor Binding (Pancreas)
CCK-8 sulphated was radiolabelled with ^125 I-Bolton Hunter reagent (2000 Ci/mmole). Receptor binding was performed according to Chang and Lotti (Proc. Natl. Acad. Sci. 83, 4923-4926, 1986) with minor modifications.
Male Sprague-Dawley rats (150-200 g) were sacrificed by decapitation. The whole pancreas was dissected free of fat tissue and was homogenized in 25 volumes of ice-cold 10 mM Hepes buffer with 0.1% soya bean trypsin inhibitor (pH 7.4 at 25° C.) with a Kinematica Polytron. The homogenates were centrifuged at 47,800 g for 10 min. Pellets were resuspended in 10 volumes of binding assay buffer (20 mM Hepes, 1 mM EGTA, 5 mM MgCl2, 150 mM NaCl, bacitracin 0.25 mg/ml, soya bean trypsin inhibitor 0.1 mg/ml, and bovine serum albumin 2 mg/ml, pH 6.5 at 25° C.) using a teflon homogenizer, 15 strokes at 500 rpm. The homogenate was further diluted in binding assay buffer to give a final concentration of 0.5 mg original wet weight/1 ml buffer. […] All assays were run in duplicate. […] The radioactivity on the filters was counted with a LKB gamma counter. […]
(§1) Drug displacement studies were performed with at least 10 concentrations of compounds of formula 1 and the IC50 values were determined by regression analysis.

[4] = target: T2, CCK receptor (guinea pig brain cortex) (Cavia porcellus, UniProt H0VZC5); assay: CCK Receptor Binding (Brain), 125I-CCK-8 displacement; set-up: species or system guinea pig (male Hartley); conditions: guinea pig cortex membranes, 50 pM 125I-CCK-8, 25° C., 2 hours, pH 6.5
T2 construct: the cortex was removed and homogenized in 25 mL ice-cold 0.32M sucrose; from tissue; host or cells: brain cortex P2 membranes, male Hartley guinea pig
T2 sequence (H0VZC5 1-426): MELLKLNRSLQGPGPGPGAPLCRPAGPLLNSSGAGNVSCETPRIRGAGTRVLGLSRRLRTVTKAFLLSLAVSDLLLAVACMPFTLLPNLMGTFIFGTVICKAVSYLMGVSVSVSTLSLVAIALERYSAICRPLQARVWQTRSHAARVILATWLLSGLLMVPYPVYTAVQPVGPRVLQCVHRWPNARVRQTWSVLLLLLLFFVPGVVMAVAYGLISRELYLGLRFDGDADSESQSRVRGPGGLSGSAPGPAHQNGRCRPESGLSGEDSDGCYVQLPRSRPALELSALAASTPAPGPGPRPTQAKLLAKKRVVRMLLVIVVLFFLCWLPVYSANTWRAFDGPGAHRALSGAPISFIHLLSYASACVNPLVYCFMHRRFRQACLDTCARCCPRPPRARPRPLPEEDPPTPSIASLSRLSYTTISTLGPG
Procedure: 2. CCK Receptor Binding (Brain)
CCK-8 sulphated was radiolabelled and the binding was performed according to the description for the pancreas method with minor modifications.
Male Hartley guinea pigs (300-500 g) were sacrificed by decapitation and the cortex was removed and homogenized in 25 mL ice-cold 0.32M sucrose. The homogenates were centrifuged at 1000 g for 10 minutes and the resulting supernatant was recentrifuged at 20,000 g for 20 minutes. […] All assays were run in duplicate. The reaction mixtures were incubated at 25° C. for 2 hours and then the reaction was terminated on Whatman GF/C filters by rapid filtration (Brandell 24 well cell Harvester) with 3×5 ml washes of cold 100 mM NaCl. The radioactivity on the filters was then counted with a LKB gamma counter.
Effect of The Compounds of Formula I on ^125 I-CCK-8 receptor binding
as §1

[5] = system: gastrin; conditions: literature, in words; cited from earlier work

Structure (SMILES): Cc1cccc(NC(=O)N[C@@H]2N=C(c3ccccc3)c3ccccc3N(C)C2=O)c1 [(R)-N-(2,3-dihydro-1-methyl-2-oxo-5-phenyl-1H-1,4-benzodiazepin-3-yl)-N^1-(3-methylphenyl) urea]
- CCK-B antagonist potency and selectivity [1]: potent and selective antagonist of CCK-B receptors

Structure (SMILES): CSCC[C@H](NC(=O)OC(C)(C)C)C(=O)N[C@@H](CC(=O)O)C(=O)N[C@@H](Cc1ccccc1)C(N)=O [Boc-Met-Asp-Phe-NH2] (Boc-Met-Asp-Phe-NH2)
- CCK antagonist/agonist character [2]: can function as CCK antagonists

Structure (SMILES): CSCC[C@H](NC(=O)[C@H](Cc1ccc(OS(=O)(=O)O)cc1)NC(=O)OCc1ccccc1)C(=O)NCC(=O)N[C@@H](Cc1c[nH]c2ccccc12)C(=O)N[C@@H](CCSC)C(=O)N[C@@H](CC(=O)O)C(N)=O [Cbz-Tyr(SO3 H)-Met-Gly-Trp-Met-Asp-NH2] (Cbz-[sY]MGWMD-NH2)
- CCK antagonist/agonist character [2]: partial agonist

Structure (SMILES): Cc1cccc(N(CCC(=O)O)C(=O)NC2N=C(c3ccccc3)c3ccccc3N(C)C2=O)c1 (stereo not shown) [Example 1, N-{1,3-Dihydro-1-methyl-2-oxo-5-phenyl-1H-1,4-benzodiazepin-3-yl}-N'-carboxyethyl-N'-{[3-methylphenyl]-urea}]
- IC50 [3]: > 3 µM
- IC50 [4]: 3.68 µM

Structure (SMILES): Cc1cccc(NC(=O)N(CCC(=O)O)C2N=C(c3ccccc3)c3ccccc3N(C)C2=O)c1 (stereo not shown) [Example 2, N-{1,3-Dihydro-1-methyl-2-oxo-5-phenyl-1H-1,4-benzodiazepin-3-yl}-N-carboxyethyl-N'-{[3-methylphenyl]-urea}]
- IC50 [3]: > 3 µM
- IC50 [4]: 0.51 µM

Structure (SMILES): CSCC[C@H](N)C(=O)N[C@@H](CC(=O)O)C(=O)N[C@@H](Cc1ccccc1)C(N)=O [Met-Asp-Phe-NH2] (H-Met-Asp-Phe-NH2)
- CCK antagonist/agonist character [2]: can function as CCK antagonists

Structure (SMILES): CCCC(=O)Nc1nc2c(ncn2C2O[C@H]3COP(=O)(O)O[C@@H]3[C@@H]2OC(=O)CCC)c(=O)[nH]1 (stereo partly shown) [dibutyryl cyclic GMP]
- CCK antagonist/agonist character [2]: most potent

Structure (SMILES): CCCN(CCC)C(=O)C(CCC(=O)O)NC(=O)c1ccccc1 (stereo not shown) [proglumide]
- gastrin antagonism in vitro [5]: very weak in vitro antagonists
